{
  "source": "patent US7271239B2",
  "about": "“D-isomers of antimicrobial peptide” (The Research Foundation of State University of New York, priority 2004, dated 2007)",
  "key": {"[1]": {"system": "S. mutans", "assay": "microbe, parasite or virus in culture", "settings": "median of four strains", "source_text": "(§1) The bacteria used in this study included Streptococcus mutans ATCC10449, Streptococcus mutans AU 159, Streptococcus mutans GS-5, Streptococcus mutans GS-5 mutant (^gtf BCD), Streptococcus gordonii Challis, Porphyromonas gingivalis W50, Porphyromonas gingivalis 381, A. actinomycetemcomitans NCTC 9710, Pseudomonas aeruginosa ATCC 17648, and Escherichia coli HB101. One quarter strength (25%) of brain heart infusion broth (BHI, DIFCO Laboratories, Detroit, Mich.) was used for the growth of S. mutans, S. gordonii, A. actinomycetemcomitans, Ps. aeruginosa, and E. coli. For growth of P. gingivalis, tryptic soy broth-yeast extract medium (TSBY, DIFCO Laboratories, Detroit, Mich.) supplemented with cysteine hydrochloride (0.05%), menadione (0.02 μg/ml), hemin (5 μg/ml), and potassium nitrate (0.02%) was used. All bacteria were cultured at 37° C.; Ps. aeruginosa and E. coli were grown aerobically, and the other bacteria, anaerobically. To prepare bacterial cell suspension for antibacterial activity assays, each overnight culture was harvested by centrifuge (3783 g, 10 min), washed once with 10 mM sodium phosphate-buffered saline (PBS, pH 7.2), resuspended in PBS and adjusted to a concentration of 1×10^6 cells/mL.\n(§2) MICs of the peptides were determined by broth microdilution method as previously described (5). Briefly, two-fold serial dilutions of each peptide were prepared with 25% BHI medium at a volume of 200 μl per well in 96-well flat-bottom microtiter plates (Costar, Cambridge, Mass.). The final concentration of the peptides ranged from 0.78 to 100 μM, and chlorhexidine (CHX), used as a positive control, from 20 to 0.16 μM (10 to 0.078 μg/mL). The microtiter plate was inoculated with bacterial cell suspension with final concentration of 5×10^6 CFU/mL for P. gingivalis and 5×10^5 CFU/mL for the other bacterial species. After incubation at 37° C. for 48 h, the absorbance was measured at 595 nm by using a microplate reader (Model 3550, Bio-Rad, Japan) to assess the cell growth. […] The MIC value represents the median of at least three independent experiments. The minimal bactericidal concentration (MBC) was determined as follows. Aliquot (100 μl) of cell suspension was taken from two wells above MIC, centrifuged, and washed three times with PBS. Then each cell suspension was plated on TSBY agar plate, and bacterial cells were enumerated after incubation at 37° C. for 48 h. The MBC was defined as the lowest concentration of the peptide at which more than 99.9% of cells were killed compared to non-treated control."}, "[2]": {"system": "S. gordonii Challis", "assay": "microbe, parasite or virus in culture", "assay_type": "cell-based, Streptococcus gordonii", "source_text": "as §1, §2"}, "[3]": {"system": "A. actinomycetemcomitans NCTC 9710", "assay": "microbe, parasite or virus in culture", "assay_type": "cell-based", "source_text": "as §1, §2"}, "[4]": {"system": "P. gingivalis", "assay": "microbe, parasite or virus in culture", "assay_type": "cell-based, Porphyromonas gingivalis", "source_text": "as §1, §2"}, "[5]": {"system": "Ps. aeruginosa ATCC 17648", "assay": "microbe, parasite or virus in culture", "assay_type": "cell-based, Pseudomonas aeruginosa", "settings": "ATCC 17648", "source_text": "as §1, §2"}, "[6]": {"system": "E. coli HB101", "assay": "microbe, parasite or virus in culture", "assay_type": "cell-based, Escherichia coli", "source_text": "as §1, §2"}, "[7]": {"system": "S. mutans GS-5", "assay": "Time-kill assay", "assay_type": "cell-based, Streptococcus mutans", "settings": "after 4 h incubation, each agent at its MIC", "protocol": "FIG. 10. Time-Killing curves for S. mutans. […] Control (▪), MUC7 12-mer-L (Δ), MUC7 12-mer-D (□), MUC7 20-mer (▴), Hsn5 12-mer (×), magainin II (●), chlorhexidine (◯).\nFor the peptides MUC7 12-mer-L, MUC7 12-mer-D, and MUC7 20-mer, time-kill kinetic studies against S. mutans were performed by the broth macrodilution method. S. mutans GS-5 (1×10^6 CFU/ml) and antibacterial agens (find concentrations of 12.5 μM for each peptide, and 2 μM for CHX; their MICs) were incubated in 25% BHI at 37° C. At the time of 0, 1, 2, 4, 8, and 24 h, samples were taken and viable counts determined as follows: The samples were serially diluted (10^−1 to 10^−4) in sterile 10 mM PBS (pH 7.2) and 50 μl aliquots were plated onto TSBY agar. The plates were incubated anaerobically at 37° C. for 48 h, followed by enumerating the CFU. Killing curves were constructed by plotting the log10 CFU per milliliter versus time over 24 h. All assays were done in duplicate on at least two occasions."}, "[8]": {"system": "S. mutans GS-5 biofilm", "assay_type": "cell-based, Streptococcus mutans", "protocol": "FIG. 11. Effect of peptides on the biofilm formation of S. mutans. The bacterial cells (5×10^5 cfu ml^−1) were inoculated in 96-well microtiter plate containing 25% BHIS medium with different concentration of each agent. Culture without agent was used as no treatment control. After incubation at 37° C. for 24 h, absorbance at 595 nm was recorded to assess the cell growth. Biofilm assay was performed by discarding the supernatants, washing with PBS, fixing with methanol, and staining with CV. The absorbance at 570 nm was recorded to assess the amount of biofilm. The activity was expressed as % of control. Data represents mean and SD of two independent tests with duplicates for each. Empty bar: growth, solid bar: biofilm.\nThe effect of the peptides on S. mutans in biofilm formation was examined by the microdilution method. This method is similar to the MIC assay for planktonic cells. Two-fold serial dilutions of each peptide were prepared in wells of polystyrene microtiter plates (Microtest tissue culture plate, 96 well, Falcon, Becton Dickinson and Company, N.J.) containing 25% BHI medium supplemented with 1% sucrose (BHIS) at a volume of 200 μl per well. The final concentration of the peptide ranged from 0.78 to 100 μM for each peptide. Chlorhexidine (CHX, 0.078 to 10 μg/mL) was used as the positive control, the medium without drug as the non-treated control, and the medium alone as the blank control. The cells suspension of S. mutans GS-5 was prepared as describe in MIC assay and 20 μl aliquot (final concentration of cells 5×10^5 CFU/mL) was inoculated to the wells of polystyrene microtiter plates. After incubation at 37° C. for 20 h, the culture supernatants from each well were decanted and planktonic cells were removed by washing with PBS, pH 7.2. The biofilm was fixed with methanol for 15 min and then air dried at room temperature. The biofilm was then stained with 0.1% (wt/vol) crystal violet (Sigma) for 5 min. and rinsed thoroughly with water until the control wells appeared colorless. Biofilm formation was quantified by the addition of 200 μl of 95% ethanol to each crystal violet-stained well. The plate was rocked at room temperature for 30 min and the absorbance at 595 nm (A595 nm) was determined with a microplate reader (BioRad Model 3550 Microplate Reader). Percentage of inhibition was calculated with the equation: (1−A595 nm of the test/A595nm of non-treated control)×100."}, "[9]": {"system": "S. mutans GS-5 1-day biofilm", "assay_type": "cell-based, Streptococcus mutans", "protocol": "FIG. 12. Effect of peptides on 1-day biofilm of S. mutans. One-day mature biofilm was prepared as described above. BHI medium supplemented with 1% sucrose (BHIS) with peptides, prepared in another microtiter plate, was then transferred to the biofilm plate. After further incubation at 37° C. for 24 h, the biofilm was fixed, stained, and quantified as describe above. Data represents mean and SD of two independent tests performed in duplicated. Empty bar: growth, solid bar: biofilm.\nTo examine the effects of the peptides on 1-day mature biofilm, S. mutans GS-5 was inoculated into the wells of another polystyrene microtiter plate containing BHIS at a volume of 200 μl per well. After incubation at 37° C. for 24 h, the culture supernatants from each well were decanted and planktonic cells were removed by washing with PBS. BHIS containing 0.78 to 100 μM peptides, prepared in another microtiter plate, was then transferred to the 1-day biofilm plate, and further incubated at 37° C. for one day. The biofilm was fixed, stained, and quantified as describe above."}},
  "note": "Read-outs that look alike come from different tables or passages of the source. Where a SMILES comes first, the peptide text is derived from it.",
  "data": [
    {"smiles": "CC[C@H](C)[C@H](NC(=O)[C@H](Cc1ccccc1)NC(=O)[C@@H]1CCCN1C(=O)[C@H](CCCCN)NC(=O)[C@H](CCC(N)=O)NC(=O)[C@H](Cc1c[nH]cn1)NC(=O)[C@H](C)NC(=O)[C@@H](N)CC(C)C)C(=O)N[C@@H](CCCNC(=N)N)C(=O)N[C@@H](CCCCN)C(=O)N[C@@H](CO)C(=O)N[C@@H](Cc1ccc(O)cc1)C(=O)N[C@@H](CCCCN)C(=O)N[C@@H](CS)C(=O)N[C@@H](CC(C)C)C(=O)N[C@@H](Cc1c[nH]cn1)C(=O)N[C@@H](CCCCN)C(=O)N[C@@H](CCCNC(=N)N)C(=O)N[C@@H](CS)C(=O)N[C@@H](CCCNC(=N)N)C(=O)O", "note": "[MUC7 20-mer] (H-LAHQKPFIRKSYKCLHKRCR-OH; N-terminus and C-terminus assumed)", "values": [
      {"measurement": "MBC (μM)", "setting": "[1]", "value": 12.5, "unit": "µM"},
      {"measurement": "MBC (μg/ml)", "setting": "[1]", "value": 31.4, "unit": "µg/mL"},
      {"measurement": "MBC (μM)", "setting": "[2]", "value": 25.0, "unit": "µM"},
      {"measurement": "MBC (μg/ml)", "setting": "[2]", "value": 62.8, "unit": "µg/mL"},
      {"measurement": "MIC (μM)", "setting": "[2]", "value": 12.5, "unit": "µM"},
      {"measurement": "MIC (μg/ml)", "setting": "[2]", "value": 31.4, "unit": "µg/mL"},
      {"measurement": "MBC (μg/ml)", "setting": "[3]", "value": 251.3, "unit": "µg/mL"},
      {"measurement": "MIC (μg/ml)", "setting": "[3]", "value": 251.3, "unit": "µg/mL"},
      {"measurement": "MBC (μM)", "setting": "[3]; NCTC 9710", "value": 100.0, "unit": "µM"},
      {"measurement": "MIC (μM)", "setting": "[3]; NCTC 9710", "value": 100.0, "unit": "µM"},
      {"measurement": "MIC (μM)", "setting": "[4]", "value": ">100", "unit": "µM"},
      {"measurement": "MIC (μg/ml)", "setting": "[4]", "value": ">251", "unit": "µg/mL"},
      {"measurement": "MBC (μM)", "setting": "[5]", "value": ">100", "unit": "µM"},
      {"measurement": "MBC (μg/ml)", "setting": "[5]", "value": ">251", "unit": "µg/mL"},
      {"measurement": "MIC (μM)", "setting": "[5]", "value": ">100", "unit": "µM"},
      {"measurement": "MIC (μg/ml)", "setting": "[5]", "value": ">251", "unit": "µg/mL"},
      {"measurement": "MBC (μM)", "setting": "[6]", "value": 100.0, "unit": "µM"},
      {"measurement": "MIC (μM)", "setting": "[6]", "value": 100.0, "unit": "µM"},
      {"measurement": "reduction of the viable counts of S. mutans", "setting": "[7]", "value": 2, "unit": "log10"},
      {"measurement": "MBIC50", "setting": "[8]", "value": 15.5, "unit": "µg/mL"},
      {"measurement": "MBIC50", "setting": "[8]; GS-5 biofilm, 24 h", "value": 6.25, "unit": "µM"},
      {"measurement": "MBEC50 (μg/ml)", "setting": "[9]", "value": 62, "unit": "µg/mL"},
      {"measurement": "MBEC50 (μM)", "setting": "[9]; GS-5 1-day biofilm, 24 h", "value": 25, "unit": "µM"},
      {"measurement": "eradication of 1-day developed biofilm", "setting": "[9]; at or more than MBEC50", "value": "reduction of biofilm was observed"}
    ]}
  ]
}
